Tested on: angioedema in CSU patients
Experiment: Phase 2 CSU study: angioedema activity score over 7 days (AAS7)
Type: in vivo, human
Set-up: AAS7, Median / AAS7 Change from baseline, Median: scale not given here
Source text: The study comprises a 12 week, randomized, double-blind, placebo-controlled, multi-center, dose-ranging efficacy and safety phase, followed by a 40 week open label extension (OLE) phase (see FIG. 1). The study consists of three phases and an optional OLE phase. […] The weekly angioedema activity score (AAS7) was proposed as a tertiary endpoint. […] Patients were to complete the AAS using the e-diary. The e-diary was to be used once daily on the same time of each day recording of participant's answers to the angioedema activity score over 7 days (AAS7) questionnaire.

[1] = Omalizumab-Naïve Population, 400 mg TID, Week 7
[2] = Omalizumab-Naïve Population, 400 mg TID, Week 8
[3] = Omalizumab-Naïve Population, 400 mg TID, Week 9
[4] = Omalizumab-Naïve Population, 400 mg TID, Week 10
[5] = Omalizumab-Naïve Population, 400 mg TID, Week 11
[6] = Omalizumab-Naïve Population, 400 mg TID, Week 12
[7] = Patients with Prior Omalizumab Use, 400 mg BID, Week 1
[8] = Patients with Prior Omalizumab Use, 400 mg BID, Week 2
[9] = Patients with Prior Omalizumab Use, 400 mg BID, Week 3
[10] = Patients with Prior Omalizumab Use, 400 mg BID, Week 4
[11] = Patients with Prior Omalizumab Use, 400 mg BID, Week 5
[12] = Patients with Prior Omalizumab Use, 400 mg BID, Week 6
[13] = Patients with Prior Omalizumab Use, 400 mg BID, Week 7
[14] = Patients with Prior Omalizumab Use, 400 mg BID, Week 8
[15] = Patients with Prior Omalizumab Use, 400 mg QPM, Week 1
[16] = Patients with Prior Omalizumab Use, 400 mg QPM, Week 2
[17] = Patients with Prior Omalizumab Use, 400 mg QPM, Week 3
[18] = Patients with Prior Omalizumab Use, 400 mg QPM, Week 4
[19] = Patients with Prior Omalizumab Use, 400 mg QPM, Week 5
[20] = Patients with Prior Omalizumab Use, 400 mg QPM, Week 6
[21] = Patients with Prior Omalizumab Use, 400 mg QPM, Week 7
[22] = Patients with Prior Omalizumab Use, 400 mg QPM, Week 8

Compound: CC(C)(C=C(C#N)C(=O)N1CCC[C@@H](n2nc(-c3ccc(Oc4ccccc4)cc3F)c3c(N)ncnc32)C1)N1CCN(C2COC2)CC1 [rilzabrutinib, (R)-2-[3-[4-amino-3-(2-fluoro-4-phenoxy-phenyl)pyrazolo[3,4-d]pyrimidin-1-yl]piperidine-1-carbonyl]-4-methyl-4-[4-(oxetan-3-yl)piperazin-1-yl]pent-2-enenitrile]
- AAS7 Change from baseline, Median [1]: −27.00
- AAS7 Percent change from baseline, Mean (SD) [1]: −66.41 (55.40) %
- AAS7 Percent change from baseline, Median [1]: −93.41%
- AAS7 Change from baseline, Mean (SD) [2]: −33.38 (24.94)
- AAS7 Change from baseline, Median [2]: −25.00
- AAS7 Percent change from baseline, Mean (SD) [2]: −69.90 (38.13) %
- AAS7 Percent change from baseline, Median [2]: −85.88%
- AAS7, Median [3]: 1.40
- AAS7 Change from baseline, Mean (SD) [3]: −38.54 (26.30)
- AAS7 Change from baseline, Median [3]: −39.00
- AAS7 Percent change from baseline, Mean (SD) [3]: −78.96 (34.18) %
- AAS7 Percent change from baseline, Median [3]: −98.13%
- AAS7, Median [4]: 2.00
- AAS7 Change from baseline, Mean (SD) [4]: −39.26 (24.84)
- AAS7 Change from baseline, Median [4]: −40.00
- AAS7 Percent change from baseline, Mean (SD) [4]: −82.44 (32.63) %
- AAS7 Percent change from baseline, Median [4]: −96.61%
- AAS7, Median [5]: 3.00
- AAS7 Change from baseline, Mean (SD) [5]: −36.30 (27.49)
- AAS7 Change from baseline, Median [5]: −31.00
- AAS7 Percent change from baseline, Mean (SD) [5]: −76.08 (33.07) %
- AAS7 Percent change from baseline, Median [5]: −96.00%
- AAS7, Median [6]: 0.00
- AAS7 Change from baseline, Mean (SD) [6]: −37.55 (25.86)
- AAS7 Change from baseline, Median [6]: −31.00
- AAS7 Percent change from baseline, Mean (SD) [6]: −82.72 (30.20) %
- AAS7 Percent change from baseline, Median [6]: −100.00%
- AAS7, Mean (SD) [7]: 0.00 (0.00)
- AAS7, Median [7]: 0.00
- AAS7 Change from baseline, Mean (SD) [7]: −39.50 (3.54)
- AAS7 Change from baseline, Median [7]: −39.50
- AAS7 Percent change from baseline, Mean (SD) [7]: −100.00 (0.00) %
- AAS7 Percent change from baseline, Median [7]: −100.00%
- AAS7, Mean (SD) [8]: 0.00 (0.00)
- AAS7, Median [8]: 0.00
- AAS7 Change from baseline, Mean (SD) [8]: −39.50 (3.54)
- AAS7 Change from baseline, Median [8]: −39.50
- AAS7 Percent change from baseline, Mean (SD) [8]: −100.00 (0.00) %
- AAS7 Percent change from baseline, Median [8]: −100.00%
- AAS7, Mean (SD) [9]: 0.00 (0.00)
- AAS7, Median [9]: 0.00
- AAS7 Change from baseline, Mean (SD) [9]: −39.50 (3.54)
- AAS7 Change from baseline, Median [9]: −39.50
- AAS7 Percent change from baseline, Mean (SD) [9]: −100.00 (0.00) %
- AAS7 Percent change from baseline, Median [9]: −100.00%
- AAS7, Mean (SD) [10]: 0.00 (0.00)
- AAS7, Median [10]: 0.00
- AAS7 Change from baseline, Mean (SD) [10]: −39.50 (3.54)
- AAS7 Change from baseline, Median [10]: −39.50
- AAS7 Percent change from baseline, Mean (SD) [10]: −100.00 (0.00) %
- AAS7 Percent change from baseline, Median [10]: −100.00%
- AAS7, Mean (SD) [11]: 0.00 (0.00)
- AAS7, Median [11]: 0.00
- AAS7 Change from baseline, Mean (SD) [11]: −39.50 (3.54)
- AAS7 Change from baseline, Median [11]: −39.50
- AAS7 Percent change from baseline, Mean (SD) [11]: −100.00 (0.00) %
- AAS7 Percent change from baseline, Median [11]: −100.00%
- AAS7, Mean (SD) [12]: 0.00 (0.00)
- AAS7, Median [12]: 0.00
- AAS7 Change from baseline, Mean (SD) [12]: −39.50 (3.54)
- AAS7 Change from baseline, Median [12]: −39.50
- AAS7 Percent change from baseline, Mean (SD) [12]: −100.00 (0.00) %
- AAS7 Percent change from baseline, Median [12]: −100.00%
- AAS7, Mean (SD) [13]: 1.00 (1.41)
- AAS7, Median [13]: 1.00
- AAS7 Change from baseline, Mean (SD) [13]: −38.50 (2.12)
- AAS7 Change from baseline, Median [13]: −38.50
- AAS7 Percent change from baseline, Mean (SD) [13]: −97.62 (3.37) %
- AAS7 Percent change from baseline, Median [13]: −97.62%
- AAS7, Mean (SD) [14]: 0.00 (0.00)
- AAS7, Median [14]: 0.00
- AAS7 Change from baseline, Mean (SD) [14]: −39.50 (3.54)
- AAS7 Change from baseline, Median [14]: −39.50
- AAS7, Mean (SD) [15]: 27.00 (NC)
- AAS7, Median [15]: 27.00
- AAS7 Change from baseline, Mean (SD) [15]: 41.00 (NC)
- AAS7 Change from baseline, Median [15]: −41.00
- AAS7 Percent change from baseline, Mean (SD) [15]: −60.29 (NC) %
- AAS7 Percent change from baseline, Median [15]: −60.29%
- AAS7, Mean (SD) [16]: 25.00 (NC)
- AAS7, Median [16]: 25.00
- AAS7 Change from baseline, Mean (SD) [16]: −43.00 (NC)
- AAS7 Change from baseline, Median [16]: −43.00
- AAS7 Percent change from baseline, Mean (SD) [16]: −63.24 (NC) %
- AAS7 Percent change from baseline, Median [16]: −63.24%
- AAS7, Mean (SD) [17]: 29.00 (NC)
- AAS7, Median [17]: 29.00
- AAS7 Change from baseline, Mean (SD) [17]: −39.00 (NC)
- AAS7 Change from baseline, Median [17]: −39.00
- AAS7 Percent change from baseline, Mean (SD) [17]: −57.35 (NC) %
- AAS7 Percent change from baseline, Median [17]: −57.35%
- AAS7, Mean (SD) [18]: 26.00 (NC)
- AAS7, Median [18]: 26.00
- AAS7 Change from baseline, Mean (SD) [18]: −42.00 (NC)
- AAS7 Change from baseline, Median [18]: −42.00
- AAS7 Percent change from baseline, Mean (SD) [18]: −61.76 (NC) %
- AAS7 Percent change from baseline, Median [18]: −61.76%
- AAS7, Mean (SD) [19]: 37.00 (NC)
- AAS7, Median [19]: 37.00
- AAS7 Change from baseline, Mean (SD) [19]: −31.00 (NC)
- AAS7 Change from baseline, Median [19]: −31.00
- AAS7 Percent change from baseline, Mean (SD) [19]: −45.59 (NC) %
- AAS7 Percent change from baseline, Median [19]: −45.59%
- AAS7, Mean (SD) [20]: 21.00 (NC)
- AAS7, Median [20]: 21.00
- AAS7 Change from baseline, Mean (SD) [20]: −47.00 (NC)
- AAS7 Change from baseline, Median [20]: −47.00
- AAS7 Percent change from baseline, Mean (SD) [20]: −69.12 (NC) %
- AAS7 Percent change from baseline, Median [20]: −69.12%
- AAS7, Mean (SD) [21]: 12.00 (NC)
- AAS7, Median [21]: 12.00
- AAS7 Change from baseline, Mean (SD) [21]: −56.00 (NC)
- AAS7 Change from baseline, Median [21]: −56.00
- AAS7 Percent change from baseline, Mean (SD) [21]: −82.35 (NC) %
- AAS7 Percent change from baseline, Median [21]: −82.35%
- AAS7, Mean (SD) [22]: 18.00 (NC)
- AAS7, Median [22]: 18.00
- AAS7 Change from baseline, Mean (SD) [22]: −50.00 (NC)

— patent US20260256792A1, “TREATMENT OF CHRONIC SPONTANEOUS URTICARIA BY ADMINISTERING (R)-2-[3-[4-AMINO-3-(2-FLUORO-4-PHENOXY-PHENYL)PYRAZOLO[3,4-D]PYRIMIDIN-1-YL]PIPERIDINE-1-CARBONYL]-4-METHYL-4-[4-(OXETAN-3-YL)PIPERAZIN-1-YL]PENT-2-ENENITRILE” (priority 2023, published 2026)
